Measured values published in US20240148821A1, “PHARMACEUTICAL USE OF CYCLIC PEPTIDE COMPOUND” (CHUGAI SEIYAKU KABUSHIKI KAISHA, priority 2021, published 2024).
Bridge positions count the residues as written; N and C are the ends. Square brackets hold non-standard residues; d marks the D form. Peptide text beside a SMILES is read from it. * marks the point of attachment. hPhe(3-Cl-4-CF3) = N[C@@H](CCc1ccc(C(F)(F)F)c(Cl)c1)C(=O)O; hPhe(3-F,4-CF3) = N[C@@H](CCc1ccc(C(F)(F)F)c(F)c1)C(=O)O; NMePhe(4-CF3) = CN[C@@H](Cc1ccc(C(F)(F)F)cc1)C(=O)O; hPhe(4-CF3) = N[C@@H](CCc1ccc(C(F)(F)F)cc1)C(=O)O; NMeNle(6-CHF2) = CN[C@@H](CCCCC(F)F)C(=O)O; NMeGly(cPent) = CN[C@H](C(=O)O)C1CCCC1; Pro(4,4-F2) = O=C(O)[C@@H]1CC(F)(F)CN1; NMeCha = CN[C@@H](CC1CCCCC1)C(=O)O; NMeD = CN[C@@H](CC(=O)O)C(=O)O; CH2CONHtBu = CC(C)(C)NC(=O)C*; NMeL = CN[C@@H](CC(C)C)C(=O)O; NMeNle = CCCC[C@H](NC)C(=O)O; d(β3hA) = C[C@@H](N)CC(=O)O; NMeS = CN[C@@H](CO)C(=O)O; NMeA = CN[C@@H](C)C(=O)O; Piperidide = C1CCN(*)CC1; dNMeA = CN[C@H](C)C(=O)O; Ac5c = NC1(C(=O)O)CCCC1; Aze = O=C(O)[C@@H]1CCN1; Ac4c = NC1(C(=O)O)CCC1; Aib = CC(C)(N)C(=O)O; Isopentyl = CC(C)CC*; Sar = CNCC(=O)O

Tested on: Human pancreatic cancer cell line AsPC-1 (G12D mutation Kras)
Experiment: AsPC-1 cell growth inhibition (AsPC-1 CGI)
Assay type: cell-based
Conditions: read-out: AsPC-1 cell growth inhibition, 50% growth inhibitory concentration (IC50 value); 96 hours, CellTiter-Glo, values classified in ranges
Description: Test compounds were serially dilated with dimethyl sulfoxide, and 200 nL was then dispensed to a U-bottom 96-well plate using Labcyte Echo. […] The cell suspension was dispensed to a. plate containing a test compound at 100 μL per well and incubated at 37° C. in a 5% carbon dioxide gas incubator. 96 hours later, 80 μL of CellTiter-Glo (Promega) was added to each well and fluorescence was measured.

Question: Which IC50 does the source give for `CC(C)C[C@H]1C(=O)N[C@@H](C(C)C)C(=O)N(C)CC(=O)N(C)CC(=O)N(C)[C@@H](CC2CCCCC2)C(=O)N(C)CC(=O)N[C@@H](CCc2ccc(C(F)(F)F)c(F)c2)C(=O)N2CCC[C@H]2C(=O)NC2(CCCC2)C(=O)N(C)[C@@H](CC(C)C)C(=O)N[C@H](C)CC(=O)N1C` [Compound 1493] (cyclo([Ac5c][NMeL][d(β3hA)][NMeL]V[Sar][Sar][NMeCha][Sar][hPhe(3-F,4-CF3)]P)) here?
Answer: > 500 nM

Question: How did the IC50 turn out when `CC[C@H](C)[C@@H]1NC(=O)[C@H](CC(C)C)N(C)C(=O)C[C@@H](C(=O)N2CCCCC2)N(C)C(=O)[C@H](CC(C)C)N(C)C(=O)C(C)(C)NC(=O)[C@H](COCC(=O)NC(C)(C)C)N(C)C(=O)[C@H](CCc2ccc(C(F)(F)F)cc2)NC(=O)CN(C)C(=O)[C@H](COCCC(C)C)N(C)C(=O)CN(C)C(=O)CN(C)C1=O` [Compound 1502] ([NMeL]I[Sar][Sar][NMeS](Isopentyl)[Sar][hPhe(4-CF3)][NMeS](CH2CONHtBu)[Aib][NMeL][NMeD]-Piperidide; lactam N-11) was run?
Answer: > 500 nM

Question: For `CC[C@H](C)[C@@H]1NC(=O)[C@H](CC(C)C)N(C)C(=O)C[C@@H](C)NC(=O)[C@H](CC(C)C)N(C)C(=O)C2(CCCC2)NC(=O)[C@@H]2CCCN2C(=O)[C@H](CCc2ccc(C(F)(F)F)c(Cl)c2)NC(=O)CN(C)C(=O)[C@H](CC2CCCCC2)N(C)C(=O)CN(C)C(=O)CN(C)C1=O` [Compound 1503] (cyclo([Ac5c][NMeL][d(β3hA)][NMeL]I[Sar][Sar][NMeCha][Sar][hPhe(3-Cl-4-CF3)]P)), which IC50 is on record?
Answer: > 500 nM

Question: Which IC50 does the source give for `CC[C@H](C)[C@@H]1NC(=O)[C@H](C)N(C)C(=O)C[C@@H](C)NC(=O)[C@H](C2CCCC2)N(C)C(=O)C2(CCC2)NC(=O)[C@@H]2CCCN2C(=O)[C@H](CCc2ccc(C(F)(F)F)c(Cl)c2)NC(=O)CN(C)C(=O)[C@H](CC2CCCCC2)N(C)C(=O)CN(C)C(=O)CN(C)C1=O` [Compound 1506] (cyclo([Ac4c][NMeGly(cPent)][d(β3hA)][NMeA]I[Sar][Sar][NMeCha][Sar][hPhe(3-Cl-4-CF3)]P)) here?
Answer: > 500 nM

Question: `CC[C@H](C)[C@@H]1NC(=O)[C@H](C)N(C)C(=O)C[C@@H](C)NC(=O)[C@H](C2CCCC2)N(C)C(=O)C2(CCCC2)NC(=O)[C@@H]2CCCN2C(=O)[C@H](CCc2ccc(C(F)(F)F)c(Cl)c2)NC(=O)[C@@H](C)N(C)C(=O)[C@H](Cc2ccc(C(F)(F)F)cc2)N(C)C(=O)[C@@H]2CCN2C(=O)CN(C)C1=O` [Compound 1507] (cyclo([Ac5c][NMeGly(cPent)][d(β3hA)][NMeA]I[Sar][Aze][NMePhe(4-CF3)][dNMeA][hPhe(3-Cl-4-CF3)]P)) was tested. Which IC50 did it give?
Answer: > 500 nM

Question: Which IC50 does the source give for `CC[C@H](C)[C@@H]1NC(=O)[C@H](CC(C)C)N(C)C(=O)C[C@@H](C)NC(=O)[C@H](CC(C)C)N(C)C(=O)C2(CCCC2)NC(=O)[C@@H]2CC(F)(F)CN2C(=O)[C@H](CCc2ccc(C(F)(F)F)c(F)c2)NC(=O)CN(C)C(=O)[C@H](CC2CCCCC2)N(C)C(=O)CN(C)C(=O)CN(C)C1=O` [Compound 1509] (cyclo([Ac5c][NMeL][d(β3hA)][NMeL]I[Sar][Sar][NMeCha][Sar][hPhe(3-F,4-CF3)][Pro(4,4-F2)])) here?
Answer: > 500 nM

Question: `CC[C@H](C)[C@@H]1NC(=O)[C@H](CC(C)C)N(C)C(=O)C[C@@H](C)NC(=O)[C@H](CC(C)C)N(C)C(=O)C2(CCCC2)NC(=O)[C@@H]2CCCN2C(=O)[C@H](CCc2ccc(C(F)(F)F)c(F)c2)NC(=O)CN(C)C(=O)[C@H](CCCCC(F)F)N(C)C(=O)CN(C)C(=O)CN(C)C1=O` [Compound 1515] (cyclo([Ac5c][NMeL][d(β3hA)][NMeL]I[Sar][Sar][NMeNle(6-CHF2)][Sar][hPhe(3-F,4-CF3)]P)) was tested. Which IC50 did it give?
Answer: > 500 nM

Question: Which IC50 does the source give for `CCCC[C@H]1C(=O)N[C@H](C)CC(=O)N(C)[C@@H](CC(C)C)C(=O)N[C@@H]([C@@H](C)CC)C(=O)N(C)CC(=O)N(C)CC(=O)N(C)[C@@H](CC2CCCCC2)C(=O)N(C)CC(=O)N[C@@H](CCc2ccc(C(F)(F)F)c(F)c2)C(=O)N2CCC[C@H]2C(=O)NC2(CCCC2)C(=O)N1C` [Compound 1518] (cyclo([Ac5c][NMeNle][d(β3hA)][NMeL]I[Sar][Sar][NMeCha][Sar][hPhe(3-F,4-CF3)]P)) here?
Answer: > 500 nM

Question: How did the IC50 turn out when `CC[C@H](C)[C@@H]1NC(=O)[C@H](C)N(C)C(=O)C[C@@H](C)NC(=O)[C@H](C2CCCC2)N(C)C(=O)C2(CCCC2)NC(=O)[C@@H]2CCCN2C(=O)[C@H](CCc2ccc(C(F)(F)F)c(Cl)c2)NC(=O)[C@@H](C)N(C)C(=O)[C@H](Cc2ccc(C(F)(F)F)cc2)N(C)C(=O)CN(C)C(=O)CN(C)C1=O` [Compound 1520] (cyclo([Ac5c][NMeGly(cPent)][d(β3hA)][NMeA]I[Sar][Sar][NMePhe(4-CF3)][dNMeA][hPhe(3-Cl-4-CF3)]P)) was run?
Answer: > 500 nM

Question: `CC[C@H](C)[C@@H]1NC(=O)[C@H](CC(C)C)N(C)C(=O)C[C@@H](C)NC(=O)[C@H](CC(C)C)N(C)C(=O)C(C)(C)NC(=O)[C@H](CC(C)C)N(C)C(=O)[C@H](CCc2ccc(C(F)(F)F)c(F)c2)NC(=O)CN(C)C(=O)[C@H](CCCCC(F)F)N(C)C(=O)CN(C)C(=O)CN(C)C1=O` [Compound 1526] (cyclo([Aib][NMeL][d(β3hA)][NMeL]I[Sar][Sar][NMeNle(6-CHF2)][Sar][hPhe(3-F,4-CF3)][NMeL])) was tested. Which IC50 did it give?
Answer: > 500 nM
